These results are taken from PMC9228535, “Antistaphylococcal Activities and ADME-Related Properties of Chlorinated Arylcarbamoylnaphthalenylcarbamates” (Pharmaceuticals, 2022).

Values after ≈ are worked out from the molar mass of the structure shown. Like-named read-outs stand apart in the source and are kept apart here.

The nature of series [1]: Lipophilicity determination by RP-HPLC (log k, log D). Type of series: physicochemical. Particulars: RP-HPLC; for log D6.5: MeOH 72%/acetate buffered saline pH 6.5; for log D7.4: MeOH 72%/acetate buffered saline pH 7.4; for log k: MeOH 72%/water 28%. As for the experimental part: Lipophilicity was measured by reversed-phase high performance liquid chromatography (RP-HPLC) under isocratic conditions with methanol as the organic modifier in the aqueous mobile phase and the logarithm of the capacity factor k was calculated, which is used as the lipophilicity index converted to the log P scale. In addition to the log k values, the logarithm of the distribution coefficient DpH at pH 6.5 and 7.4 was determined to clarify the behavior of the compounds under physiological conditions and possible ionization. Instead of water, a buffer of suitable pH was used as part of the mobile phase. In addition to the above-mentioned experimental methods, commercially available ChemBioDraw Ultra 13.0 and ACD/Percepta ver. […] In addition to lipophilicity, other parameters discussed in Ro5, such as molecular weight, number of H-bond donors/acceptors, as well as parameters not reported in Ro5, but characterizing the physicochemical properties of the prepared molecules, such as number of rotatable bonds, were predicted using ACD/Percepta. Moreover, for each R substituent, bulkiness expressed as molar volume (MV [cm^3]), a parameter describing the tail length/branching of each carbamates, was calculated.
A HPLC separation module Agilent 1200 Series (Agilent Technologies, Santa Clara, CA, USA) equipped with a Dual Absorbance Detector (DAD SL G1315C, Agilent Technologies) was used. A chromatographic column Symmetry® C18 5 μm, 4.6 × 250 mm, Part No. W21751W016 (Waters Corp, Milford, MA, USA) was used. The HPLC separation process was monitored by ChemStation for LC 3D systems (Agilent Technologies). […] The total flow of the column was 1.0 mL/min, injection 20 μL, column temperature 40 °C, and sample temperature 10 °C. The detection wavelength of 210 nm was chosen. A KI methanolic solution was used for the determination of the dead times (tD). Retention times (tR) were measured in minutes. The capacity factors k were calculated according to the formula k = (tR − tD)/tD, where tR is the retention time of the solute, and tD is the dead time obtained using an unretained analyte. The distribution coefficients DpH were calculated according to the formula DpH = (tR − tD)/tD. Each experiment was repeated three times.

Series [2] relates to MRSA SA 3202. Briefly: MIC, microtitration broth method. Particulars: Staphylococcus aureus. The series is classed as cell-based. As for the experimental part: (§1) All the investigated compounds were screened for in vitro antibacterial activity against the reference and quality control strain Staphylococcus aureus ATCC 29213 and clinical isolates of methicillin-resistant S. aureus (MRSA) 63718, SA 630, and SA 3202 [14]. Activities are expressed as the minimum inhibitory concentrations (MICs), see Table 2. In addition to the MICs, the minimum bactericidal concentrations (MBCs) were also determined.
(§2) In vitro antibacterial activity of the synthesized compounds was evaluated against representatives of multidrug-resistant bacteria, three clinical isolates of methicillin-resistant S. aureus: clinical isolate of animal origin, MRSA 63718 (Department of Infectious Diseases and Microbiology, Faculty of Veterinary Medicine, University of Veterinary Sciences Brno, Czech Republic), carrying the mecA gene; and MRSA SA 630 [46] and MRSA SA 3202 [46] (National Institute of Public Health, Prague, Czech Republic), both of human origin. Suspected colonies were confirmed by PCR; a 108bp fragment specific for S. aureus was detected. All isolates were tested for the presence of the mecA gene encoding methicillin resistance. […] Vancomycin-susceptible methicillin-susceptible S. aureus (VS-MSSA) ATCC 29213, obtained from the American Type Culture Collection, was used as the reference and quality control strain. Enterococcus faecalis ATCC 29212 was obtained from the American Type Culture Collection and used as the reference and quality control strain.
(§3) The minimum inhibitory concentrations (MICs) were evaluated by the microtitration broth method according to the CLSI [64, 65] with some modifications. The compounds were dissolved in DMSO (Sigma, St. Louis, MO, USA) to get a concentration […] and diluted in a microtitration plate in an appropriate medium, namely, Cation Adjusted Mueller–Hinton (CaMH, Oxoid, Basingstoke, UK) for staphylococci (S. aureus ATCC 29213, clinical isolates of MRSA 63718, SA 630, and SA 3202) and brain heart infusion (BHI, Oxoid) for E. faecalis ATCC 29212, to reach the final concentration of 256-0.125 µg/mL. The plate was inoculated by the tested microorganisms. The final concentration of bacterial cells was 10^5 for bacteria. Ampicillin (Sigma) was used as reference drugs. A drug-free control and a sterility control were included. The plates were incubated for 24 h at 37 °C for staphylococci and E. faecalis ATCC 29212 (stability evaluation of the carbamates, see Supplementary materials, Table S1). […] The experiments were repeated three times.

Series [3] has as its system Staphylococcus aureus ATCC 29213. Briefly: MIC, microtitration broth method. Type of series: cell-based. As to conditions: ATCC29213, SA = S. aureus ATCC 29213, 24 h, read-out: MIC. As for the experimental part:
as §1, §2, §3

Series [4] relates to MRSA SA 630. Description: MIC, microtitration broth method. The series is classed as cell-based. Particulars: Staphylococcus aureus. As for the experimental part: as §1, §2, §3
The subject of series [5] is MRSA 63718. Description: MIC, microtitration broth method. Type of series: cell-based. Particulars: Staphylococcus aureus. As for the experimental part: as §1, §2, §3
The test system of another series is THP-1 cells. Briefly: In vitro cytotoxicity assay (WST-1). The series is classed as cell-based. Particulars: Homo sapiens; THP-1, 24 h, ± SD, n = 6; read-out: IC50. As for the experimental part:
Preliminary in vitro cytotoxicity screening of the investigated compounds was performed using human monocytic leukemia THP-1 cells, see Table 2. The ability to inhibit the human cancer cell viability (IC50) of the compounds was compared to camptothecin toxicity (0.16 ± 0.07 μM). […] However, these values are up to two orders of magnitude higher than their significant antistaphyloccocal concentrations. This fact is also taken into account in the calculated selectivity index (SI), Table 2, where for only three compounds the SI is <20, while for the rest of the agents SI is >20, and for some derivatives even 100 and more. Thus, based on all these observations, it can be concluded that all the tested derivatives can be considered as in vitro non-toxic compounds for the subsequent design of new therapeutic agents.
The human THP-1 cell line (European Collection of Cell Cultures, Salisbury, UK) was cultured in RPMI 1640 medium supplemented with 10% fetal bovine serum, 2% L-glutamine, 1% penicillin, and streptomycin at 37 °C with 5% CO2. Cells were passaged at approximately 1-week intervals. All the tested compounds were prepared and dissolved as mentioned in our previous work.
For orientation: Formazan colour is commonly taken as a measure of viable cells.

Series [6] relates to S. aureus and MRSA isolates. Briefly: Antistaphylococcal MIC, summary over strains. The series is classed as cell-based, Staphylococcus aureus. As for the experimental part:
All the investigated compounds were screened for in vitro antibacterial activity against the reference and quality control strain Staphylococcus aureus ATCC 29213 and clinical isolates of methicillin-resistant S. aureus (MRSA) 63718, SA 630, and SA 3202 [14]. Activities are expressed as the minimum inhibitory concentrations (MICs), see Table 2. In addition to the MICs, the minimum bactericidal concentrations (MBCs) were also determined. […] MBC values that meet this requirement, i.e., the compound is bactericidal, are indicated in bold in Table 2.
as §2
The minimum inhibitory concentrations (MICs) were evaluated by the microtitration broth method according to the CLSI [64, 65] with some modifications. […]

For series [7], the system named is Enterococcus faecalis ATCC 29212. Briefly: MIC, microtitration broth method. The series is classed as cell-based. As to conditions: ATCC29212; EF = Enterococcus faecalis, 24 h; read-out: MIC. As for the experimental part:
as §2, §3

Series [8] concerns MRSA SA 3202. Description: MBC, agar aliquot subculture method. The series is classed as cell-based. Particulars: Staphylococcus aureus. As for the experimental part: as §1
(§4) For the S. aureus and MRSA isolates, the agar aliquot subculture method was used as a test for bactericidal agents. After the MIC value determination, the inoculum was transferred to Mueller–Hinton (Oxoid) agar using a multipoint inoculator. The plates were incubated in a thermostat at 37 °C for 24 h. The lowest concentration of test compound at which ≤5 colonies were obtained was then evaluated as MBC, corresponding to a 99.9% decrease in CFU relative to the original inoculum.

Series [9] has as its system Staphylococcus aureus ATCC 29213. Briefly: MBC, agar aliquot subculture method. The series is classed as cell-based. Particulars: ATCC29213, SA = S. aureus ATCC 29213, read-out: MBC. As for the experimental part:
as §1, §4

The subject of series [10] is MRSA SA 630. Briefly: MBC, agar aliquot subculture method. As to conditions: Staphylococcus aureus. Type of series: cell-based. As for the experimental part: as §1, §4
For series [11], the system named is MRSA 63718. Briefly: MBC, agar aliquot subculture method. Particulars: Staphylococcus aureus, MRSA. The series is classed as cell-based. As for the experimental part: as §1, §4
Series [12] relates to MRSA 63718. The arrangement: method as in PMID 25692135. As to conditions: cited from earlier work.

Take `O=C(Nc1cc(Cl)c(Cl)cc1Cl)c1ccc2ccccc2c1O` [Compound 1, 1-hydroxy-N-(2,4,5-trichlorophenyl)-2-naphthamide]: in series [1], the “log D6.5” value is reported as 0.5782. In addition, the “log D7.4” value in series [1] is 0.5384. In series [1], the log k stood at 0.6600. In addition, the MIC was 698 µM (≈ 256 µg/mL) with MRSA SA 3202 [2] (MRSA3 = SA 3202, 24 h, read-out: MIC); 698 µM (≈ 256 µg/mL) in [3]; 698 µM (≈ 256 µg/mL) in the series on MRSA SA 630 [4] (MRSA2 = SA 630, 24 h, read-out: MIC); 698 µM (≈ 256 µg/mL) in the series with MRSA 63718 [5] (MRSA1 = MRSA 63718, 24 h, read-out: MIC); 477 µM (≈ 175 µg/mL) in series [7]. Also, the IC50 in the series with THP-1 cells was over 30 µM. Further, the “antistaphylococcal/antibacterial activity (in words)” value in series [6] (S. aureus and MRSA isolates) was “no antibacterial activity”.

In the case of `CCCCNC(=O)Oc1c(C(=O)Nc2cc(Cl)c(Cl)cc2Cl)ccc2ccccc12` [Compound 4, 2-[N-(2,4,5-Trichlorophenyl)carbamoyl]naphthalen-1-yl butyl carbamate], the MBC is 0.069 µM (≈ 0.0321 µg/mL) in the series on MRSA SA 3202 [8], 0.034 µM (≈ 0.0158 µg/mL) in series [9], 0.537 µM (≈ 0.25 µg/mL) against MRSA SA 630 [10] and 0.268 µM (≈ 0.125 µg/mL) in the series with MRSA 63718 [11]. The “log D6.5” value in series [1] is 0.9980. Further, in [1], the “log D7.4” value is reported as 1.1401. Also, the log k in [1] was found to be 1.0756. The MIC in the series with MRSA SA 3202 [2] (24 h) was 0.069 µM (≈ 0.0321 µg/mL); in series [3] it was 0.034 µM (≈ 0.0158 µg/mL); against MRSA SA 630 [4] (24 h) it was 0.017 µM (≈ 0.00792 µg/mL); against MRSA 63718 [5] (MRSA, 24 h), 0.135 µM (≈ 0.0629 µg/mL); in [6] (Staphylococcus aureus, read-out: MICs), 0.018 to 0.064 µM (≈ 0.00838 to 0.0298 µg/mL); in [7], 275 µM (≈ 128 µg/mL). Besides, the IC50 in the series on THP-1 cells is 3.42 ± 0.1 µM.

Regarding `CN[C@H](CC(C)C)C(=O)N[C@H]1C(=O)N[C@@H](CC(N)=O)C(=O)N[C@H]2C(=O)N[C@H]3C(=O)N[C@H](C(=O)N[C@H](C(=O)O)c4cc(O)cc(O)c4-c4cc3ccc4O)[C@H](O)c3ccc(c(Cl)c3)Oc3cc2cc(c3O[C@@H]2O[C@H](CO)[C@@H](O)[C@H](O)[C@H]2O[C@H]2C[C@](C)(N)[C@H](O)[C@H](C)O2)Oc2ccc(cc2Cl)[C@H]1O` [vancomycin], in the series with MRSA 63718 [12], the MIC was 2 µg/mL (≈ 1.38 µM).

As usually defined, the IC50 is the concentration that gives 50% inhibition. By MBC is commonly meant the lowest tested concentration that kills the bacteria rather than only halting them.
